The target of one assay is EGFR (L858R/T790M/C797S) (Homo sapiens, UniProt P00533, C797S/L858R/T790M). Briefly: MSA (Mobility Shift Assay) kinase activity, EGFR-L858R-T790M-C797S. The assay is classed as biochemical. Summed up: (§1)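 Kinase preincubated with compound 10 min at room temperature, then reaction started with ATP plus substrate in 1x kinase buffer and run at room temperature. Substrate-to-product conversion read by mobility shift; % inhibition normalised to no-enzyme and no-compound controls, IC50 from variable-slope four-parameter fit.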
Sequence of EGFR (L858R/T790M/C797S) (P00533 25-1210 T790M/C797S/L858R): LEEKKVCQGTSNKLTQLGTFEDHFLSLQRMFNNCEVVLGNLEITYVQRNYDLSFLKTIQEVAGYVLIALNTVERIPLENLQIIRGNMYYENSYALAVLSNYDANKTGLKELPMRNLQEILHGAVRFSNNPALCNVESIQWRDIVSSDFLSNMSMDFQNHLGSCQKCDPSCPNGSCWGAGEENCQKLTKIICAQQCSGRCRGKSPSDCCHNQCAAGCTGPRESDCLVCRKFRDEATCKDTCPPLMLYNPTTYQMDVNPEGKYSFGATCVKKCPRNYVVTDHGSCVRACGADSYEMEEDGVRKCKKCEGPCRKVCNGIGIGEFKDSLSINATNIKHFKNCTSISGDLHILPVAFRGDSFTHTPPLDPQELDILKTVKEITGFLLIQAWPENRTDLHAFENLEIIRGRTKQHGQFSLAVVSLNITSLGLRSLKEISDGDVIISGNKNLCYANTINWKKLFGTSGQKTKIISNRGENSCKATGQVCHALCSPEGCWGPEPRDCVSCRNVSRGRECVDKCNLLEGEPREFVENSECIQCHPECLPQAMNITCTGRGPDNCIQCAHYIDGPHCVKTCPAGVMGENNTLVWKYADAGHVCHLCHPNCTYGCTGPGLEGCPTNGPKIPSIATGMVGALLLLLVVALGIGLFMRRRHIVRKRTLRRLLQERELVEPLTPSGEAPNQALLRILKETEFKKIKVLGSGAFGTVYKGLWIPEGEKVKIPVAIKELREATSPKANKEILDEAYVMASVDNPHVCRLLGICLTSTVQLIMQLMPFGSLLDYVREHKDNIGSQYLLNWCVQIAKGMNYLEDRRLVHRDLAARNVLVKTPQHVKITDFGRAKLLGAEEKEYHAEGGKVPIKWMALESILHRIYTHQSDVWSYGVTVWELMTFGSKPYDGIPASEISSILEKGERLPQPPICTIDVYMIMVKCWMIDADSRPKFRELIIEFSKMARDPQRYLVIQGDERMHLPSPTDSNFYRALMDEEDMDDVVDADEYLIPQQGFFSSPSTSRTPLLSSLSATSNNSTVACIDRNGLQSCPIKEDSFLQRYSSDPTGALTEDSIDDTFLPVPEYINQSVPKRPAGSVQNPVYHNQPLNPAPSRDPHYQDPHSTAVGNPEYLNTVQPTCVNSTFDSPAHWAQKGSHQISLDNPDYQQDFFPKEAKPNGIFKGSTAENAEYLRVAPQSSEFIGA

Another assay concerns the target EGFR (wild-type) (Homo sapiens, UniProt P00533). Briefly: MSA (Mobility Shift Assay) kinase activity, EGFR wild type. The assay is classed as biochemical. The note with it: read-out: EGFR wt/ IC50/nM. In short, it runs like this:
as §1

Assay [1] concerns BaF3 (del19/T790M1C797S) tumor cells. Briefly: In vivo efficacy assay in BALB/c nude mice, subcutaneous BaF3 tumor. As to conditions: for TGI: based on final tumor volume. The method, then:
In vivo efficacy assay in BALB/c nude mice. Details were as follows:
BaF3 (del19/T790M1C797S) tumor cells were cultured and inoculated into 6-8 weeks old female BALB/c nude mice (weighing about 20 g), with all mice being subcutaneously inoculated. The mice were cultured in an SPF-grade experimental environment, and all mice had free access to commercially certified standard diets. When the average tumor volume of the mice grew to about 150 mm^3, the test compound was orally administered daily. The dosage was as follows: blank group vehicle (DMSO/Solutol/H2O, 5/10/85). […] The tumor volume was measured three times a week with a two-dimensional caliper, and the animals were weighed every day. […] The volume calculation formula is: V=1/2a*b^2, where a represents the long diameter of the tumor, and b represents the short diameter of the tumor.

The target of the next assay is EGFR (L858R/C797S) (Homo sapiens, UniProt P00533, C797S/L858R). Briefly: MSA (Mobility Shift Assay) kinase activity, EGFR-L858R-C797S. The class given is biochemical. Summed up: as §1
Sequence of EGFR (L858R/C797S) (P00533 25-1210 C797S/L858R): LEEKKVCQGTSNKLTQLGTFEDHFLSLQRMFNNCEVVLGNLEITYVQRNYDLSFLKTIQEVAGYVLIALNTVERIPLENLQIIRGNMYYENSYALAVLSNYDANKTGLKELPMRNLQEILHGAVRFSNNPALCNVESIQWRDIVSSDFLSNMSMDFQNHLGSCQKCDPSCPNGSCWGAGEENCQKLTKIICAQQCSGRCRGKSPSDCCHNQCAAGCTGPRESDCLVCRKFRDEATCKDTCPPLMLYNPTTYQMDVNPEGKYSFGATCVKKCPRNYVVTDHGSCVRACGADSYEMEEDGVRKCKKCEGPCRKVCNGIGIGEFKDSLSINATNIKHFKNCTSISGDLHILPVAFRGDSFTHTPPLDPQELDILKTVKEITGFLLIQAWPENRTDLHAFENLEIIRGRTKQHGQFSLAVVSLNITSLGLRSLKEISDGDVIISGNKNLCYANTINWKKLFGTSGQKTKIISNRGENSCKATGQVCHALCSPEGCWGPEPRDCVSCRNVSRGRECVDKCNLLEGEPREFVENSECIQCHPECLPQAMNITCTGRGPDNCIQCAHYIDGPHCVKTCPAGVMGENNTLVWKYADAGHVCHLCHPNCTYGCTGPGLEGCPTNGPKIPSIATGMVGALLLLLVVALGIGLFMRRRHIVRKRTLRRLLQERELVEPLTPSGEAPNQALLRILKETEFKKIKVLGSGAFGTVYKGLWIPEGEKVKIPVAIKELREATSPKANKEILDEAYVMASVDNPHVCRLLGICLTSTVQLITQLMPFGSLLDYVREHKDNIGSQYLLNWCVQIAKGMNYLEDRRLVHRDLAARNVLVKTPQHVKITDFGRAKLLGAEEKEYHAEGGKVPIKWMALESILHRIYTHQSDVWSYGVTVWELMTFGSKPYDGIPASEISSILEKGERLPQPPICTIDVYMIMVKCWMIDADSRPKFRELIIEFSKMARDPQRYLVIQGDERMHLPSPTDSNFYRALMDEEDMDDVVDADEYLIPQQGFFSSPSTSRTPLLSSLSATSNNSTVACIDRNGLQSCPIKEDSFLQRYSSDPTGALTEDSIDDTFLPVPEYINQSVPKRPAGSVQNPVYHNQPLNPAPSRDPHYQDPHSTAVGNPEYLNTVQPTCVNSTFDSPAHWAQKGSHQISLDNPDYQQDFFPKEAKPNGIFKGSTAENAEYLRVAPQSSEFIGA
In a further assay the target is EGFR (L858R) (Homo sapiens, UniProt P00533, L858R). Briefly: MSA (Mobility Shift Assay) kinase activity, EGFR-L858R. The assay is classed as biochemical. In short, it runs like this:
as §1

[2] abbreviates: 100 mg/kg BID oral (50 mg/kg for the first 4 days, 100 mg/kg from the 5th day), after 13 days.

Sequence of EGFR (L858R) (P00533 25-1210 L858R): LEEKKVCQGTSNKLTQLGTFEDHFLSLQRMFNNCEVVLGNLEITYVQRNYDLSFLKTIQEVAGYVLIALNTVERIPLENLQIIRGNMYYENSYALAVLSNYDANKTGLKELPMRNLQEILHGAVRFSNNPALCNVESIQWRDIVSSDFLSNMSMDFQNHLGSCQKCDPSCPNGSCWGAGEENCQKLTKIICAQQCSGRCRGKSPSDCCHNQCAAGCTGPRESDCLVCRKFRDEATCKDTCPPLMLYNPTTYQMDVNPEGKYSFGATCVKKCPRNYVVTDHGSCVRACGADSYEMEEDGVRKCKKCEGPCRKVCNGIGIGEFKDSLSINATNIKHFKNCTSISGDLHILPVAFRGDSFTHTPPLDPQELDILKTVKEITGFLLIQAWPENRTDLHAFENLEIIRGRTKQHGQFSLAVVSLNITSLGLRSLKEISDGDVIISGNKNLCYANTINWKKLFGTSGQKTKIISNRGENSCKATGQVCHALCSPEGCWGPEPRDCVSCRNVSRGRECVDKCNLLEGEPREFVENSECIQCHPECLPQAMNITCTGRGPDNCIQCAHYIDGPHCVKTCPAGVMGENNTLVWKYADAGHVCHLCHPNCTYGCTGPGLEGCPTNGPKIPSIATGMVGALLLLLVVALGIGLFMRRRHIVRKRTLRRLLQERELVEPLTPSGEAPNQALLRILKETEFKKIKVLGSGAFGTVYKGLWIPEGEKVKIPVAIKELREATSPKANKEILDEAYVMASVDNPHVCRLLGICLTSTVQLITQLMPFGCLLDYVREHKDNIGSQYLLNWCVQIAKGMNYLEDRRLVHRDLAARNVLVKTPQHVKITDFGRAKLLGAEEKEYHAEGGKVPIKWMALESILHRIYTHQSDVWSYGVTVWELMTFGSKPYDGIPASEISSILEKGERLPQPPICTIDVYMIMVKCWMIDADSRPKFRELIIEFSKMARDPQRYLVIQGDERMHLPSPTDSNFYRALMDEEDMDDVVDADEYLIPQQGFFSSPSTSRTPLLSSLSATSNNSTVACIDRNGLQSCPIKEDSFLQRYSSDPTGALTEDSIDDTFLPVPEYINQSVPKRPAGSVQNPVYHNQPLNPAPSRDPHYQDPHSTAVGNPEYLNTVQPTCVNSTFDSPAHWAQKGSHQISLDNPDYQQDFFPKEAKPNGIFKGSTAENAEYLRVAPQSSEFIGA
Sequence of EGFR (wild-type) (P00533 25-1210): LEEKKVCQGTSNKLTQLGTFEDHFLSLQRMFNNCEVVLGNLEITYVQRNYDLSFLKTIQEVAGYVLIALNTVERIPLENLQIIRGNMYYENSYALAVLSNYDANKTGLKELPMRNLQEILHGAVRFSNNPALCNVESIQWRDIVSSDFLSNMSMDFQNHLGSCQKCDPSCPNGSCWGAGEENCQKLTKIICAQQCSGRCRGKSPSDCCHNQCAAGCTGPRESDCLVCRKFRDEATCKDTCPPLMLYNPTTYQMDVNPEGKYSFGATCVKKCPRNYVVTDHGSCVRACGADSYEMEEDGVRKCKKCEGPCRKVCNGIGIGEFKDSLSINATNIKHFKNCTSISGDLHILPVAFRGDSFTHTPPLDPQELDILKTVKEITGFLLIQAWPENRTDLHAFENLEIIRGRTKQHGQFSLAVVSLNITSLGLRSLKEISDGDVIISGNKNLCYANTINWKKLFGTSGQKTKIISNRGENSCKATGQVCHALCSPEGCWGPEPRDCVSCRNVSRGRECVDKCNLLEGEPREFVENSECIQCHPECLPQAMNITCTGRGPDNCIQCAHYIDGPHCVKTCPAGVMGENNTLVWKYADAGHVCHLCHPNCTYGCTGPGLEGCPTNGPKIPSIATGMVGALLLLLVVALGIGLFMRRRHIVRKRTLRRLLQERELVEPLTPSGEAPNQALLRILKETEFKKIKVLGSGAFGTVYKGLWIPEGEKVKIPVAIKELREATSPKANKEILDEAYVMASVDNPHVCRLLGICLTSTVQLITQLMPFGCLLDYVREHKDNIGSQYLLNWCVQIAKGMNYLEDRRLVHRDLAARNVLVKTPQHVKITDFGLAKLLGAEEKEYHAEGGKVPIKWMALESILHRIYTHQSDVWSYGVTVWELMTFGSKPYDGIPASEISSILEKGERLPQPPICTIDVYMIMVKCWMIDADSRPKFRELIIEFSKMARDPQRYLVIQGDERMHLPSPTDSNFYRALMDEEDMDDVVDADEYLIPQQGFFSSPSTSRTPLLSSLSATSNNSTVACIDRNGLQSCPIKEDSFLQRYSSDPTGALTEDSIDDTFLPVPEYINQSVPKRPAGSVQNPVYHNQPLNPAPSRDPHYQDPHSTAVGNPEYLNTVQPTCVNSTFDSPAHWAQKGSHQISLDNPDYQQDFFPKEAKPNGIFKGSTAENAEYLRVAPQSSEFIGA

What is called TGI is how far tumour growth fell short of that in controls. A high value points to a stronger effect on the tumour. For `CC(C)c1ccc(N2C[C@H](CS(C)(=O)=O)[C@H]2C)c2cnc(Nc3ccnc(-c4cnn(S(=O)(=O)C5CC5)c4)n3)cc12` [Compound H12], the IC50 was 0.43 nM on EGFR (L858R/T790M/C797S), 1.9 nM at EGFR (wild-type), 0.6 nM on EGFR (L858R/C797S) and 0.51 nM at EGFR (L858R). In addition, the “Tumor volume (mm^3)” value in assay [1] (setting [2]) was 1341 mm^3. In assay [1] (setting [2]), the TGI came to 68%.

Take `CC(C)c1ccc(N2CC(N(C)S(C)(=O)=O)C2)c2cnc(Nc3ccnc(N4CC[C@@H](O)[C@@H](F)C4)n3)cc12` [Compound P39a]: the IC50 is 0.05 nM on EGFR (L858R/T790M/C797S), 9.4 nM on EGFR (wild-type), 2 nM at EGFR (L858R/C797S) and 1.1 nM on EGFR (L858R). Moreover, the “Tumor volume (mm^3)” value in assay [1] (100 mg/kg, BID, oral, after 13 consecutive days of administration) came to 945 mm^3. For the same molecule, in assay [1] (100 mg/kg, BID, oral, after 13 consecutive days), the inhibition of tumour growth (TGI) amounted to 79%.

The record behind these values is patent publication US20250092017A1, “2-PIPERIDYL OR 2-PYRAZOLYL SUBSTITUTED PYRIMIDINE COMPOUND SERVING AS EGFR INHIBITOR” (SUZHOU PUHE BIOPHARMA CO., LTD., priority 2022, published 2025).
